Assay results from patent US20250243488A1, “METHODS OF MODULATING PROGRANULIN EXPRESSION USING ANTISENSE OLIGONUCLEOTIDES TARGETING REGULATORY RNAS” (Camp4 Therapeutics Corporation, priority 2022, published 2025).
Oligonucleotides are written 5' to 3', each unit as a sugar letter and its base; * is a phosphorothioate linkage, no mark a phosphodiester; rarer units and linkages stand in square brackets, end groups in braces. Plain capitals give the bases only. e = 2'-O-(2-methoxyethyl) (MOE); l = locked nucleic acid (LNA); [5mC] = 5-methylcytosine; d = 2'-deoxy (DNA)

Tests used:
mGrn mRNA = mGrn mRNA qPCR in Neuro2a cells transfected with ASOs; type: cell-based, mouse; conditions: Table 14; Neuro2a, 100 nM, 48 hours; normalized to sNTC3
Description: 57 ASOs targeting the Grn promoter (− strand) were screened in Neuro2a cells. Neuro2a cells were transfected with 100 nM of each of the ASOs listed in Table 14 and cells were harvested 48 hours later for Grn mRNA quantification using qPCR. Housekeeping genes for normalization were Gapdh and Ppia. Relative Grn mRNA levels were normalized to mRNA extracted from cells treated with sNTC3 (steric nontargeting control).
Next, 26 ASOs based on parent ASOs CO-3544 and CO-3595 were designed with different modifications and base walking. Neuro2a cells were transfected with either […] or 160 nM of each of the ASOs listed in Table 15, and cells were harvested 48 hours later for mGrn mRNA quantification using qPCR. As controls, cells were treated with sNTC3 or no ASO. Housekeeping genes for normalization were Gapdh and Ppia. Relative Grn mRNA levels were normalized to mRNA extracted from cells treated with sNTC3.
CO-3544 was modified to include PO/PS bonds and the efficacy in upregulating mGrn mRNA was determined.
Similarly, CO-3595 was modified to include varying PO/PS internucleotide bonds and the efficacy of these ASOs in upregulating mGrn mRNA was determined in Neuro2A cells.

GRN mRNA = GRN mRNA qPCR in SK-N-AS cells transfected with ASOs; type: cell-based, human; conditions: for 30 nM FC (GRN mRNA) / 60 nM FC (GRN mRNA) / 120 nM FC (GRN mRNA): Table 12, SK-N-AS, normalized to CO-1589
Summary of the method: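 Fold change in GRN mRNA, by qPCR with GAPDH/PPIA housekeeping normalization, referenced to steric non-targeting control ASO(s) such as CO-1589. ASOs were transfected into SK-N-AS neuroblastoma cells in dose titrations (20 to 160 nM initially). Cells were harvested 48 hours post-transfection.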

Row | Substance | mGRN mRNA FC (mGrn mRNA) [FC] | 30 nM FC (GRN mRNA) (GRN mRNA) [FC] | 60 nM FC (GRN mRNA) (GRN mRNA) [FC] | 120 nM FC (GRN mRNA) (GRN mRNA) [FC] | further results
1 | CO-3545: ASO targeting the Grn promoter (− strand) (antisense e[5mC]*eT*eA*eG*eT*eG*eG*eA*eA*eG*eA*eT*eG*eT*e[5mC]*eG*eG*eA*eG*e[5mC]) | 1.7 | – | – | – | –
2 | CO-3546: ASO targeting the Grn promoter (− strand) (antisense eG*eA*eA*eA*eT*eT*e[5mC]*eA*eT*eT*eT*e[5mC]*e[5mC]*e[5mC]*e[5mC]*eT*e[5mC]*eG*eA*e[5mC]) | 1.4 | – | – | – | –
3 | CO-3547: ASO targeting the Grn promoter (− strand) (antisense eA*eT*e[5mC]*eT*eG*eG*eA*eT*eT*eG*eG*e[5mC]*eT*e[5mC]*eA*e[5mC]*e[5mC]*eT*eT*eT) | 1.7 | – | – | – | –
4 | CO-3548: ASO targeting the Grn promoter (− strand) (antisense e[5mC]*eA*e[5mC]*eT*eT*eT*eT*e[5mC]*e[5mC]*e[5mC]*e[5mC]*e[5mC]*eG*e[5mC]*eT*eG*e[5mC]*e[5mC]*eT*e[5mC]) | 1.5 | – | – | – | –
5 | CO-3549: ASO targeting the Grn promoter (− strand) (antisense eA*eG*e[5mC]*eT*eA*eA*eT*eT*eT*e[5mC]*e[5mC]*eG*e[5mC]*e[5mC]*eT*e[5mC]*eT*e[5mC]*e[5mC]*e[5mC]) | 1.4 | – | – | – | –
6 | CO-3550: ASO targeting the Grn promoter (− strand) (antisense eG*eG*eT*eT*eG*eT*eG*eT*e[5mC]*eA*eG*e[5mC]*eT*eT*eT*eA*eT*eT*eT*e[5mC]) | 0.9 | – | – | – | –
7 | CO-3551: ASO targeting the Grn promoter (− strand) (antisense eG*e[5mC]*eG*eT*eG*eA*eT*eG*eG*e[5mC]*eT*eG*eA*eG*eT*e[5mC]*e[5mC]*e[5mC]*eT*eG) | 1.5 | – | – | – | –
8 | CO-3552: ASO targeting the Grn promoter (− strand) (antisense e[5mC]*e[5mC]*eT*eT*eG*eG*e[5mC]*e[5mC]*e[5mC]*e[5mC]*e[5mC]*eA*eG*eA*eG*e[5mC]*eT*e[5mC]*eA*eA) | 1.1 | – | – | – | –
9 | CO-3553: ASO targeting the Grn promoter (− strand) (antisense e[5mC]*eA*eA*eG*eT*eG*eT*eT*e[5mC]*eT*e[5mC]*eT*eG*e[5mC]*eG*eG*e[5mC]*eG*eG*e[5mC]) | 1.3 | – | – | – | –
10 | CO-3554: ASO targeting the Grn promoter (− strand) (antisense eG*eG*e[5mC]*eT*e[5mC]*eT*eT*eT*e[5mC]*eT*e[5mC]*eT*eT*eT*e[5mC]*eG*eG*eA*e[5mC]*eG) | 1.2 | – | – | – | –
11 | CO-3555: ASO targeting the Grn promoter (− strand) (antisense e[5mC]*eT*e[5mC]*eT*eT*eG*eT*e[5mC]*e[5mC]*eG*eT*eA*e[5mC]*eT*eT*e[5mC]*e[5mC]*e[5mC]*eA*e[5mC]) | 1.5 | – | – | – | –
12 | CO-3556: ASO targeting the Grn promoter (− strand) (antisense eA*eG*eG*eA*e[5mC]*eA*eG*eG*eA*eA*e[5mC]*e[5mC]*eA*e[5mC]*e[5mC]*e[5mC]*e[5mC]*eA*e[5mC]*eT) | 1.3 | – | – | – | –
13 | CO-3557: ASO targeting the Grn promoter (− strand) (antisense eT*eG*eT*e[5mC]*eG*eG*eA*eA*eA*eG*e[5mC]*eT*eG*e[5mC]*eA*eG*eG*e[5mC]*e[5mC]*eT) | 1.6 | – | – | – | –
14 | CO-3558: ASO targeting the Grn promoter (− strand) (antisense eT*e[5mC]*e[5mC]*e[5mC]*e[5mC]*e[5mC]*e[5mC]*e[5mC]*eA*eA*eT*eA*eA*eG*eA*eG*eG*e[5mC]*eT*eT) | 1.2 | – | – | – | –
15 | CO-3559: ASO targeting the Grn promoter (− strand) (antisense eG*eT*eT*eG*eT*eA*eG*eA*eG*eA*e[5mC]*eA*e[5mC]*e[5mC]*eT*e[5mC]*e[5mC]*e[5mC]*e[5mC]*eG) | 1.4 | – | – | – | –
16 | CO-3560: ASO targeting the Grn promoter (− strand) (antisense eT*eG*eA*eT*eG*e[5mC]*eA*e[5mC]*eT*eA*eA*e[5mC]*eG*eA*eG*eG*eT*eT*eG*eT) | 1.2 | – | – | – | –

Row | Substance | mGRN mRNA FC (mGrn mRNA) [FC] | 30 nM FC (GRN mRNA) (GRN mRNA) [FC] | 60 nM FC (GRN mRNA) (GRN mRNA) [FC] | 120 nM FC (GRN mRNA) (GRN mRNA) [FC] | further results
17 | CO-3561: ASO targeting the Grn promoter (− strand) (antisense e[5mC]*e[5mC]*eT*e[5mC]*eT*eT*eG*eA*eA*eA*e[5mC]*eT*e[5mC]*e[5mC]*e[5mC]*e[5mC]*eT*eA*eGeG) | 1.3 | – | – | – | –
18 | CO-3562: ASO targeting the Grn promoter (− strand) (antisense eG*e[5mC]*e[5mC]*eT*eG*eT*eG*e[5mC]*eA*eA*eT*eT*eG*eA*eGeG*eG*eT*e[5mC]*e[5mC]) | 1.1 | – | – | – | –
19 | CO-3563: ASO targeting the Grn promoter (− strand) (antisense eG*e[5mC]*eA*eG*eA*e[5mC]*eA*eA*eT*e[5mC]*eT*e[5mC]*e[5mC]*e[5mC]*e[5mC]*eG*eG*e[5mC]*eT*eA) | 1.5 | – | – | – | –
20 | CO-3564: ASO targeting the Grn promoter (− strand) (antisense eA*e[5mC]*eG*e[5mC]*eA*eG*eG*eT*eA*eG*eG*eA*eG*eG*eA*e[5mC]*e[5mC]*e[5mC]*eT*e[5mC]) | 1.1 | – | – | – | –
21 | CO-6514: ASO based on parent ASO CO-3462 (antisense eT*eA*eGeGeAeGeAeAeTe[5mC]eG*e[5mC]*eT*eT*eT*eG*eG*eG*eA*eG) | – | 1.4 | 1.9 | 1.8 | –
22 | CO-6515: ASO based on parent ASO CO-3462 (antisense eT*eA*eGeGeAeGeAeAeTe[5mC]eGe[5mC]eT*eT*eT*eG*eG*eG*eA*eG) | – | 1.2 | 1.8 | 1.7 | –
23 | CO-6516: ASO based on parent ASO CO-3462 (antisense eT*eA*eGeGeAeGeAeAeTe[5mC]eGe[5mC]eTeTeT*eG*eG*eG*eA*eG) | – | 1.0 | 1.4 | 1.0 | –
24 | CO-6517: ASO based on parent ASO CO-3462 (antisense eT*eA*eGeGeAeGeAeAeTe[5mC]eGe[5mC]eTeTeTeGeG*eG*eA*eG) | – | 1.2 | 2.3 | 2.0 | –
25 | CO-6518: ASO based on parent ASO CO-3462 (antisense eT*eA*eG*eGeAeGeAeAeTe[5mC]eGe[5mC]eTeTeTeGeGeG*eA*eG) | – | 1.2 | 1.3 | 0.9 | –
26 | CO-6519: ASO based on parent ASO CO-3462 (antisense eT*eA*eG*eG*eA*eGeAeAeTe[5mC]eGe[5mC]eTeTeTeGeGeG*eA*eG) | – | 1.1 | 1.0 | 0.9 | –
27 | CO-6520: ASO based on parent ASO CO-3462 (antisense eT*eA*eG*eG*eA*eG*eA*eAeTe[5mC]eGe[5mC]eTeTeTeGeGeG*eA*eG) | – | 1.0 | 1.2 | 0.8 | –
28 | CO-6521: ASO based on parent ASO CO-3462 (antisense eT*eA*eG*eG*eA*eG*eA*eA*eT*e[5mC]eGe[5mC]eTeTeTeGeGeG*eA*eG) | – | 1.1 | 1.2 | 1.1 | –
29 | CO-6522: ASO based on parent ASO CO-3462 (antisense eT*eA*eG*eG*eA*eG*eA*eA*eT*e[5mC]*eG*e[5mC]eTeTeTeGeGeG*eA*eG) | – | 1.1 | 1.0 | 1.1 | –
30 | CO-6523: ASO based on parent ASO CO-3462 (antisense eT*eA*eG*eG*eA*eG*eA*eA*eT*e[5mC]*eG*e[5mC]*eT*eTeTeGeGeG*eA*eG) | – | 2.9 | 1.4 | 1.3 | –
31 | CO-8877: hGRN regRNA-targeting ASO with additional chemical modifications (antisense eT*eA*lG*e[5mC]*eA*dA*dA*d[5mC]*dT*d[5mC]*d[5mC]*d[5mC]*d[5mC]*d[5mC]*dA*eG*eG*l[5mC]*eG*e[5mC]) | – | – | – | – | GRN mRNA expression in SK-N-AS cells (GRN mRNA; 3.75 to 90 nM, 48 hours post-transfection, normalized to sNTC (FIGS. 26A, 26B)): dose-dependent increase
